MIC data for 15 molecules are collected here from ChEMBL document CHEMBL4118053, “Antimicrobial Spirotetronate Metabolites from Marine-Derived Micromonospora harpali SCSIO GJ089” (2017).

Values after ≈ are worked out from the molar mass of the structure shown. Some results are limits rather than exact numbers.

The MIC is the smallest concentration in the dilution series that meets the test's criterion for growth inhibition. A higher MIC goes with weaker potency.

What all share (format): functional
The test system of assay [1] is Bacillus subtilis. The assay can be described thus: Antibacterial activity against Bacillus subtilis BS01 by CLSI method.
For assay [2], the system named is Staphylococcus aureus. The assay can be described thus: Antibacterial activity against Staphylococcus aureus ATCC 29213 by CLSI method.
Assay [3] has as its system Staphylococcus aureus. The assay can be described thus: Antibacterial activity against methicillin-resistant Staphylococcus aureus isolate shhs-A1 by CLSI method.
In assay [4] the test system is Enterococcus faecalis. The assay can be described thus: Antibacterial activity against Enterococcus faecalis ATCC 29212 by CLSI method.
The test system of assay [5] is Bacillus thuringiensis. The assay can be described thus: Antibacterial activity against Bacillus thuringiensis BT01 by CLSI method.

In the case of `COC(=O)N[C@H]1[C@@H](C)O[C@@H](O[C@H]2C/C=C(\C)[C@@H]3C=C[C@@H]4[C@@H](O[C@H]5C[C@@H](O[C@H]6CC[C@@H](O[C@@H]7C[C@@H](O)[C@@H](O[C@H]8CC[C@@H](O)[C@H](C)O8)[C@H](C)O7)[C@H](C)O6)[C@@H](OC(C)=O)[C@H](C)O5)[C@@H](C)C[C@H](C)[C@H]4[C@]3(C)C(=O)C3=C(O)[C@@]4(CC(/C=C/C(C)=O)=C[C@H](O)[C@H]4/C=C/2C)OC3=O)C[C@]1(C)N`, the MIC in assay [1] is 2 µg/mL (≈ 1.51 µM); in assay [2], above 128 µg/mL; in assay [3] it was above 128 µg/mL; in assay [4], above 128 µg/mL; in assay [5] it was 1 µg/mL (≈ 0.756 µM).
Turning to `C/C1=C\[C@@H]2C=C[C@H](C)C[C@]23OC(=O)C(=C3O)C(=O)[C@@]2(C)[C@H]3[C@H](C=C[C@H]2/C(C)=C/C[C@@H]1O)[C@@H](O)[C@](C)(O)C[C@@H]3C`, the MIC in assay [1], in assay [2], in assay [3], in assay [4] and in assay [5] was above 128 µg/mL each time.
Regarding `COC(=O)N[C@H]1[C@@H](C)O[C@@H](O[C@H]2C/C=C(\C)[C@@H]3C=C[C@@H]4[C@@H](O[C@H]5C[C@@H](O[C@H]6CC[C@@H](O[C@@H]7C[C@@H](O)[C@@H](O)[C@H](C)O7)[C@H](C)O6)[C@@H](OC(C)=O)[C@H](C)O5)[C@@H](C)C[C@H](C)[C@H]4[C@]3(C)C(=O)C3=C(O)[C@@]4(CC(C=O)=C[C@H](O)[C@H]4/C=C/2C)OC3=O)C[C@]1(C)[N+](=O)[O-]`, the MIC in assay [1] came to 0.063 µg/mL (≈ 0.0525 µM); in assay [2], 32 µg/mL (≈ 26.7 µM); in assay [3], 32 µg/mL (≈ 26.7 µM); in assay [4] it was 64 µg/mL (≈ 53.4 µM); in assay [5], 0.063 µg/mL (≈ 0.0525 µM).
Turning to `COC(=O)N[C@H]1[C@@H](C)O[C@@H](O[C@H]2C/C=C(\C)[C@@H]3C=C[C@@H]4[C@@H](O[C@H]5C[C@@H](O[C@H]6C[C@@H](O)[C@@H](O[C@@H]7C[C@@H](O)[C@@H](O)[C@H](C)O7)[C@H](C)O6)[C@@H](OC(C)=O)[C@H](C)O5)[C@@H](C)C[C@H](C)[C@H]4[C@]3(C)C(=O)C3=C(O)[C@@]4(CC(/C=C/C(C)=O)=C[C@H](O)[C@H]4/C=C/2C)OC3=O)C[C@]1(C)N`, the MIC was 8 µg/mL (≈ 6.53 µM) in assay [1]; above 128 µg/mL in assay [2]; above 128 µg/mL in assay [3]; above 128 µg/mL in assay [4]; 4 µg/mL (≈ 3.26 µM) in assay [5].
Regarding `COC(=O)N[C@H]1[C@@H](C)O[C@@H](O[C@H]2C/C=C(\C)[C@@H]3C=C[C@@H]4[C@@H](O[C@H]5C[C@@H](O[C@H]6C[C@@H](O)[C@@H](O[C@@H]7C[C@@H](O)[C@@H](O)[C@H](C)O7)[C@H](C)O6)[C@@H](OC(C)=O)[C@H](C)O5)[C@@H](C)C[C@H](C)[C@H]4[C@]3(C)C(=O)C3=C(O)[C@@]4(CC(/C=C/C(C)=O)=C[C@H](O)[C@H]4/C=C/2C)OC3=O)C[C@]1(C)[N+](=O)[O-]`, the MIC in assay [1] was 0.5 µg/mL (≈ 0.398 µM); in assay [2], above 128 µg/mL; in assay [3] it was above 128 µg/mL; in assay [4], 128 µg/mL (≈ 102 µM); in assay [5], 0.25 µg/mL (≈ 0.199 µM).
On to `COC(=O)N[C@H]1[C@@H](C)O[C@@H](O[C@H]2C/C=C(\C)[C@@H]3C=C[C@@H]4[C@@H](O[C@H]5C[C@@H](O[C@H]6CC[C@@H](O[C@@H]7C[C@@H](O)[C@@H](O[C@H]8CC[C@@H](O)[C@H](C)O8)[C@H](C)O7)[C@H](C)O6)[C@@H](OC(C)=O)[C@H](C)O5)[C@@H](C)C[C@H](C)[C@H]4[C@]3(C)C(=O)C3=C(O)[C@@]4(CC(/C=C/C(C)=O)=C[C@H](O)[C@H]4/C=C/2C)OC3=O)C[C@]1(C)[N+](=O)[O-]`, for which the MIC in assay [1] is 0.03 µg/mL (≈ 0.0222 µM); in assay [2] it was 32 µg/mL (≈ 23.6 µM); in assay [3], 32 µg/mL (≈ 23.6 µM); in assay [4], 64 µg/mL (≈ 47.3 µM); in assay [5] it was 0.016 µg/mL (≈ 0.0118 µM).
On to `COC(=O)N[C@H]1[C@@H](C)O[C@@H](O[C@H]2C/C=C(\C)[C@@H]3C=C[C@@H]4[C@@H](O[C@H]5C[C@@H](O[C@H]6CC[C@@H](O[C@@H]7C[C@@H](O)[C@@H](O[C@H]8CC[C@@H](O)[C@H](C)O8)[C@H](C)O7)[C@H](C)O6)[C@@H](OC(C)=O)[C@H](C)O5)[C@@H](C)C[C@H](C)[C@H]4[C@]3(C)C(=O)C3=C(O)[C@@]4(CC(C=O)=C[C@H](O)[C@H]4/C=C/2C)OC3=O)C[C@]1(C)[N+](=O)[O-]`, for which the MIC was 0.03 µg/mL (≈ 0.0228 µM) in assay [1]; 32 µg/mL (≈ 24.4 µM) in assay [2]; 32 µg/mL (≈ 24.4 µM) in assay [3]; 64 µg/mL (≈ 48.7 µM) in assay [4]; 0.016 µg/mL (≈ 0.0122 µM) in assay [5].
Consider `COC(=O)N[C@H]1[C@@H](C)O[C@@H](O[C@H]2C/C=C(\C)[C@@H]3C=C[C@@H]4[C@@H](O[C@H]5C[C@@H](O[C@H]6CC[C@@H](O[C@@H]7C[C@@H](O)[C@@H](O)[C@H](C)O7)[C@H](C)O6)[C@@H](OC(C)=O)[C@H](C)O5)[C@@H](C)C[C@H](C)[C@H]4[C@]3(C)C(=O)C3=C(O)[C@@]4(CC(/C=C/C(C)=O)=C[C@H](O)[C@H]4/C=C/2C)OC3=O)C[C@]1(C)N`, for which the minimum inhibitory concentration (MIC) in assay [1] was 2 µg/mL (≈ 1.65 µM); in assay [2], 128 µg/mL (≈ 106 µM); in assay [3], above 128 µg/mL; in assay [4], above 128 µg/mL; in assay [5] it was 1 µg/mL (≈ 0.827 µM).
With `COC(=O)N[C@H]1[C@@H](C)O[C@@H](O[C@H]2C/C=C(\C)[C@@H]3C=C[C@@H]4[C@@H](O[C@H]5C[C@@H](O[C@H]6CC[C@@H](O[C@@H]7C[C@@H](O)[C@@H](O)[C@H](C)O7)[C@H](C)O6)[C@@H](OC(C)=O)[C@H](C)O5)[C@@H](C)C[C@H](C)[C@H]4[C@]3(C)C(=O)C3=C(O)[C@@]4(CC(/C=C/C(C)=O)=C[C@H](O)[C@H]4/C=C/2C)OC3=O)C[C@]1(C)[N+](=O)[O-]`, the MIC in assay [1] was found to be 0.13 µg/mL (≈ 0.105 µM); in assay [2], 32 µg/mL (≈ 25.8 µM); in assay [3] it was 32 µg/mL (≈ 25.8 µM); in assay [4], 64 µg/mL (≈ 51.6 µM); in assay [5], 0.063 µg/mL (≈ 0.0508 µM).
On to `C/C1=C\[C@@H]2C=C[C@H](C)C[C@]23OC(=O)C(=C3O)C(=O)[C@@]2(C)[C@H]3[C@H](C=C[C@H]2/C(C)=C/C[C@@H]1O)[C@@H](O)[C@@H](C)C[C@@H]3C`, for which the MIC in assay [1] was 64 µg/mL (≈ 122 µM); in assay [2], 128 µg/mL (≈ 245 µM); in assay [3], 128 µg/mL (≈ 245 µM); in assay [4], 128 µg/mL (≈ 245 µM); in assay [5], 64 µg/mL (≈ 122 µM).
With `COC(=O)N[C@H]1[C@@H](C)O[C@@H](O[C@H]2C/C=C(\C)[C@@H]3C=C[C@@H]4[C@@H](O[C@H]5C[C@@H](O[C@H]6CC[C@@H](O[C@@H]7C[C@@H](O)[C@@H](O[C@H]8CC[C@@H](O)[C@H](C)O8)[C@H](C)O7)[C@H](C)O6)[C@@H](OC(C)=O)[C@H](C)O5)[C@@H](C)C[C@H](C)[C@H]4[C@]3(C)C(=O)C3=C(O)[C@@]4(CC(C=O)=C[C@H](O)[C@H]4/C=C/2C)OC3=O)C[C@]1(C)N`, the MIC is 2 µg/mL (≈ 1.56 µM) in assay [1]; above 128 µg/mL in assay [2]; above 128 µg/mL in assay [3]; above 128 µg/mL in assay [4]; 1 µg/mL (≈ 0.779 µM) in assay [5].
Turning to `COC(=O)N[C@H]1[C@@H](C)O[C@@H](O[C@H]2C/C=C(\C)[C@@H]3C=C[C@@H]4[C@@H](O[C@H]5C[C@@H](O[C@H]6CC[C@@H](O[C@@H]7C[C@@H](O)[C@@H](O)[C@H](C)O7)[C@H](C)O6)[C@@H](OC(C)=O)[C@H](C)O5)[C@@H](C)C[C@H](C)[C@H]4[C@]3(C)C(=O)C3=C(O)[C@@]4(CC(C=O)=C[C@H](O)[C@H]4/C=C/2C)OC3=O)C[C@]1(C)N`, the MIC is 2 µg/mL (≈ 1.71 µM) in assay [1]; above 128 µg/mL in assay [2]; above 128 µg/mL in assay [3]; above 128 µg/mL in assay [4]; 1 µg/mL (≈ 0.855 µM) in assay [5].
Consider `CC1(C)S[C@@H]2[C@H](NC(=O)[C@H](N)c3ccccc3)C(=O)N2[C@H]1C(=O)O` [AMPICILLIN], for which the MIC in assay [1] amounted to 0.25 µg/mL (≈ 0.715 µM); in assay [2], 2 µg/mL (≈ 5.72 µM); in assay [3], 1 µg/mL (≈ 2.86 µM); in assay [4] it was 2 µg/mL (≈ 5.72 µM); in assay [5], 32 µg/mL (≈ 91.6 µM).
Turning to `NC[C@H]1O[C@H](O[C@H]2[C@H](O)[C@@H](O[C@H]3O[C@H](CO)[C@@H](O)[C@H](N)[C@H]3O)[C@H](N)C[C@@H]2N)[C@H](O)[C@@H](O)[C@@H]1O` [KANAMYCIN], the MIC in assay [1] is 8 µg/mL (≈ 16.5 µM); in assay [2], 16 µg/mL (≈ 33 µM); in assay [3] it was 64 µg/mL (≈ 132 µM); in assay [4], 32 µg/mL (≈ 66 µM); in assay [5], 8 µg/mL (≈ 16.5 µM).
For `CN[C@H](CC(C)C)C(=O)N[C@H]1C(=O)N[C@@H](CC(N)=O)C(=O)N[C@H]2C(=O)N[C@H]3C(=O)N[C@H](C(=O)N[C@H](C(=O)O)c4cc(O)cc(O)c4-c4cc3ccc4O)[C@H](O)c3ccc(c(Cl)c3)Oc3cc2cc(c3O[C@@H]2O[C@H](CO)[C@@H](O)[C@H](O)[C@H]2O[C@H]2C[C@](C)(N)[C@H](O)[C@H](C)O2)Oc2ccc(cc2Cl)[C@H]1O` [VANCOMYCIN], the MIC in assay [1] was found to be 1 µg/mL (≈ 0.69 µM); in assay [5] it was 2 µg/mL (≈ 1.38 µM).
